The text below walks through data of PubChem BioAssay AID248 (DTP/NCI, 2004).

For the experiment, the system named is L1210 leukemia ip in BDF1 mice, survival T/C. Kind of experiment: NCI In Vivo Anticancer Drug Screen. Data for tumor model L1210 Leukemia (intraperitoneal) in B6D2F1 (BDF1) mice. To be noted: endpoint: mean survival time, higher = longer survival. The procedure, abridged: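 In this screen, tumor-bearing mice given compound are compared to those given vehicle, and their survival values are reported as a treated-to-control quotient.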

Where [1] appears, read: dose: 100.0 mg/kg/injection, schedule: Q01DX009 (ip), vehicle: saline.
The mark [2] stands for this setting: dose: 50.0 mg/kg/injection, schedule: Q01DX009 (ip), vehicle: saline.
Where [3] appears, read: dose: 100.0 mg/kg/injection, schedule: Q04DX002 (ip), vehicle: Klucel (hydroxypropylcellulose) (HPC).
Where [4] appears, read: dose: 200.0 mg/kg/injection, schedule: Q04DX002 (ip), vehicle: Klucel (hydroxypropylcellulose) (HPC).
[5] abbreviates: dose: 400.0 mg/kg/injection, schedule: Q04DX002 (ip), vehicle: Klucel (hydroxypropylcellulose) (HPC).
The mark [6] stands for this setting: dose: 25.0 mg/kg/injection, schedule: Q01DX009 (ip), vehicle: Klucel (hydroxypropylcellulose) (HPC).

“And” between values parts separate entries of the source, which are not always exact repeats. Equal values may be shown once. Toxic doses and inconclusive results are not listed.

In the case of `CCS(=O)(=O)CC`, the T/C is 101 % of control under setting [1]; 100 % of control (dose: 100.0 mg/kg/injection, schedule: Q04DX003 (ip), vehicle: saline); 106 % of control (dose: 200.0 mg/kg/injection, schedule: Q01DX009 (ip), vehicle: saline); 107 % of control (dose: 200.0 mg/kg/injection, schedule: Q04DX003 (ip), vehicle: saline); 97 % of control (dose: 400.0 mg/kg/injection, schedule: Q01DX009 (ip), vehicle: saline); 95 % of control (dose: 400.0 mg/kg/injection, schedule: Q04DX003 (ip), vehicle: saline).
`O=C(O)/C=C(\F)C(=O)O`: the T/C (dose: 50.0 mg/kg/injection, schedule: Q01DX005 (ip), vehicle: water) was 109 % of control and 91 % of control; the T/C (dose: 100.0 mg/kg/injection, schedule: Q01DX005 (ip), vehicle: water) was 96 % of control and 98 % of control; the T/C (dose: 200.0 mg/kg/injection, schedule: Q01DX005 (ip), vehicle: water) was 107 % of control and 105 % of control.
As for `CC(O)C(C)Cl` (stereo not drawn), the T/C is 100 % of control under setting [2] and 103 % of control under setting [1].
For the compound `CN(C)C1CCc2ccc3ccccc3c2C1=O` (stereo not drawn), under setting [2], the T/C was 88 % of control.
As for `COCC(O)C(OC)C(OC)C(C=O)NC(=O)N(CCCl)N=O` (stereo not drawn), the T/C is 159 % of control (dose: 14.0 mg/kg/injection, schedule: Q01DX001 (ip), vehicle: saline with Tween-80); 181 % of control (dose: 22.0 mg/kg/injection, schedule: Q01DX001 (ip), vehicle: saline with Tween-80); 331 % of control (dose: 33.5 mg/kg/injection, schedule: Q01DX001 (ip), vehicle: saline with Tween-80); 431 % of control (dose: 50.0 mg/kg/injection, schedule: Q01DX001 (ip), vehicle: saline with Tween-80); 489 % of control (dose: 75.0 mg/kg/injection, schedule: Q01DX001 (ip), vehicle: saline with Tween-80); 227 % of control (dose: 112.0 mg/kg/injection, schedule: Q01DX001 (ip), vehicle: saline with Tween-80).
For the compound `CC1=C(C)CC(/C(=N\Nc2ccc([N+](=O)[O-])cc2[N+](=O)[O-])c2ccccc2)CC1` (stereo not drawn), the T/C was 89 % of control (dose: 100.0 mg/kg/injection, schedule: Q01DX001 (ip), vehicle: saline with Tween-80); 89 % of control (dose: 200.0 mg/kg/injection, schedule: Q01DX001 (ip), vehicle: saline with Tween-80); 96 % of control (dose: 400.0 mg/kg/injection, schedule: Q01DX001 (ip), vehicle: saline with Tween-80).
Consider `COC(=O)c1cc(NC(=O)Nc2cc(C(F)(F)F)ccc2Cl)cc(C(=O)OC)c1`, for which the T/C reads like this: under setting [3], 112 % of control; under setting [4], 105 % of control; under setting [5], 105 % of control.
In the case of `O=C1C(Cl)=C(N2CCOCC2)C(=O)C(Cl)=C1N1CCOCC1`, the T/C runs as follows: (dose: 50.0 mg/kg/injection, schedule: Q01DX001 (ip), vehicle: carboxymethylcellulose (CMC)) 94 % of control; (dose: 100.0 mg/kg/injection, schedule: Q01DX001 (ip), vehicle: carboxymethylcellulose (CMC)) 92 % of control; (dose: 200.0 mg/kg/injection, schedule: Q01DX001 (ip), vehicle: carboxymethylcellulose (CMC)) 99 % of control; (dose: 400.0 mg/kg/injection, schedule: Q01DX001 (ip), vehicle: carboxymethylcellulose (CMC)) 97 % of control.
For `CC(C)CC/C=C/c1ccccc1`, the T/C (dose: 100.0 mg/kg/injection, schedule: Q04DX002 (ip), vehicle: saline with Tween-80) is 92 % of control; the T/C (dose: 200.0 mg/kg/injection, schedule: Q04DX002 (ip), vehicle: saline with Tween-80) is 104 % of control; the T/C (dose: 400.0 mg/kg/injection, schedule: Q04DX002 (ip), vehicle: saline with Tween-80) is 92 % of control.
For `CCCCCCCCCCCCCCCCCCCCCC1CCCC1`, the T/C is 96 % of control (dose: 100.0 mg/kg/injection, schedule: Q04DX003 (ip), vehicle: other); 94 % of control (dose: 200.0 mg/kg/injection, schedule: Q04DX003 (ip), vehicle: other); 96 % of control (dose: 400.0 mg/kg/injection, schedule: Q04DX003 (ip), vehicle: other).
Turning to `CC(=O)CC(OC(=O)c1cc([N+](=O)[O-])cc([N+](=O)[O-])c1)(C(F)(F)F)C(F)(F)F`, the T/C reads like this: (dose: 6.25 mg/kg/injection, schedule: Q01DX009 (ip), vehicle: Klucel (hydroxypropylcellulose) (HPC)) 93 % of control; (dose: 12.5 mg/kg/injection, schedule: Q01DX009 (ip), vehicle: Klucel (hydroxypropylcellulose) (HPC)) 88 % of control; under setting [6], 88 % of control.
As to `COc1ccc(N=C=Nc2ccc(OC)cc2)cc1`, the T/C runs as follows: (dose: 12.0 mg/kg/injection, schedule: Q01DX009 (ip), vehicle: Klucel (hydroxypropylcellulose) (HPC)) 101 % of control; under setting [6], 108 % of control; (dose: 25.0 mg/kg/injection, schedule: Q04DX003 (ip), vehicle: Klucel (hydroxypropylcellulose) (HPC)) 96 % of control; (dose: 50.0 mg/kg/injection, schedule: Q01DX009 (ip), vehicle: Klucel (hydroxypropylcellulose) (HPC)) 90 % of control; (dose: 50.0 mg/kg/injection, schedule: Q04DX003 (ip), vehicle: Klucel (hydroxypropylcellulose) (HPC)) 93 % of control; (dose: 100.0 mg/kg/injection, schedule: Q04DX003 (ip), vehicle: Klucel (hydroxypropylcellulose) (HPC)) 98 % of control.
Turning to `O=C1c2ccccc2C(=O)N1Nc1ccccc1`, the T/C is 96 % of control (dose: 5.0 mg/kg/injection, schedule: Q01DX001 (ip), vehicle: carboxymethylcellulose (CMC)); 113 % of control (dose: 10.0 mg/kg/injection, schedule: Q01DX001 (ip), vehicle: carboxymethylcellulose (CMC)); 105 % of control (dose: 20.0 mg/kg/injection, schedule: Q01DX001 (ip), vehicle: carboxymethylcellulose (CMC)); 111 % of control (dose: 40.0 mg/kg/injection, schedule: Q01DX001 (ip), vehicle: carboxymethylcellulose (CMC)); 94 % of control (dose: 80.0 mg/kg/injection, schedule: Q01DX001 (ip), vehicle: carboxymethylcellulose (CMC)); 110 % of control under setting [3]. In addition, the T/C runs as follows: under setting [4], 97 % of control; under setting [5], 103 % of control.
With `N/C(=N\N=C\c1ccc2c(c1)OCO2)N/N=C\c1ccc2c(c1)OCO2`, the T/C is 95 % of control (dose: 15.0 mg/kg/injection, schedule: Q01DX Z (ip), vehicle: carboxymethylcellulose (CMC)); 101 % of control (dose: 30.0 mg/kg/injection, schedule: Q01DX Z (ip), vehicle: carboxymethylcellulose (CMC)); 97 % of control (dose: 60.0 mg/kg/injection, schedule: Q01DX Z (ip), vehicle: carboxymethylcellulose (CMC)); 94 % of control (dose: 120.0 mg/kg/injection, schedule: Q01DX Z (ip), vehicle: carboxymethylcellulose (CMC)); 95 % of control (dose: 120.0 mg/kg/injection, schedule: Q01DX Z (oral), vehicle: carboxymethylcellulose (CMC)); 103 % of control (dose: 240.0 mg/kg/injection, schedule: Q01DX Z (oral), vehicle: carboxymethylcellulose (CMC)). For the same compound, the T/C by setting is: (dose: 480.0 mg/kg/injection, schedule: Q01DX Z (oral), vehicle: carboxymethylcellulose (CMC)) 101 % of control; (dose: 960.0 mg/kg/injection, schedule: Q01DX Z (oral), vehicle: carboxymethylcellulose (CMC)) 97 % of control.
Regarding `Cc1cc(C)c2c(c1)CC2N` (stereo not drawn), the T/C was 95 % of control (dose: 25.0 mg/kg/injection, schedule: Q04DX002 (ip), vehicle: Klucel (hydroxypropylcellulose) (HPC)); 95 % of control (dose: 50.0 mg/kg/injection, schedule: Q04DX002 (ip), vehicle: Klucel (hydroxypropylcellulose) (HPC)); 95 % of control and 103 % of control under setting [3].
As for `COC(=O)C1(C)COP(=O)(O)OC1` (stereo not drawn), the T/C reads like this: (dose: 100.0 mg/kg/injection, schedule: Q01DX001 (ip), vehicle: saline) 91 % of control and 103 % of control; (dose: 200.0 mg/kg/injection, schedule: Q01DX001 (ip), vehicle: saline) 89 % of control and 100 % of control; (dose: 400.0 mg/kg/injection, schedule: Q01DX001 (ip), vehicle: saline) 97 % of control.
For the compound `COc1cccc(OC)c1OCCCN1CCOCC1`, the T/C is, setting by setting: (dose: 25.0 mg/kg/injection, schedule: Q04DX003 (ip), vehicle: saline with Tween-80) 99 % of control; (dose: 50.0 mg/kg/injection, schedule: Q04DX003 (ip), vehicle: saline with Tween-80) 100 % of control; (dose: 100.0 mg/kg/injection, schedule: Q04DX003 (ip), vehicle: saline with Tween-80) 94 % of control.
